According to PubChem BioAssay AID1259407 (Chemical Carcinogenesis Research Information System (CCRIS), 2018):
Calls of active or inactive are those of the source. How the calls were made is not given here.

Test system: CCRIS mutagenicity, Ames/micronucleus/aberration tests
Experiment: CCRIS mutagenicity studies
[1] = Test System: AMES SALMONELLA TYPHIMURIUM, Strain/Indicator: TA98, Metabolic Activation: HAMSTER, LIVER, S-9, AROCLOR 1254 (10%), Method: PREINCUBATION
[2] = Test System: AMES SALMONELLA TYPHIMURIUM, Strain/Indicator: TA98, Metabolic Activation: NONE, Method: PREINCUBATION
[3] = Test System: AMES SALMONELLA TYPHIMURIUM, Strain/Indicator: TA98, Metabolic Activation: RAT, LIVER, S-9, AROCLOR 1254 (10%), Method: PREINCUBATION
[4] = Test System: AMES SALMONELLA TYPHIMURIUM, Strain/Indicator: TA100, Metabolic Activation: HAMSTER, LIVER, S-9, AROCLOR 1254 (10%), Method: PREINCUBATION
[5] = Test System: AMES SALMONELLA TYPHIMURIUM, Strain/Indicator: TA100, Metabolic Activation: NONE, Method: PREINCUBATION
[6] = Test System: AMES SALMONELLA TYPHIMURIUM, Strain/Indicator: TA100, Metabolic Activation: RAT, LIVER, S-9, AROCLOR 1254 (10%), Method: PREINCUBATION
[7] = Test System: AMES SALMONELLA TYPHIMURIUM, Strain/Indicator: TA1535, Metabolic Activation: HAMSTER, LIVER, S-9, AROCLOR 1254 (10%), Method: PREINCUBATION
[8] = Test System: AMES SALMONELLA TYPHIMURIUM, Strain/Indicator: TA1535, Metabolic Activation: NONE, Method: PREINCUBATION
[9] = Test System: AMES SALMONELLA TYPHIMURIUM, Strain/Indicator: TA1535, Metabolic Activation: RAT, LIVER, S-9, AROCLOR 1254 (10%), Method: PREINCUBATION
[10] = Test System: AMES SALMONELLA TYPHIMURIUM, Strain/Indicator: TA98, Metabolic Activation: NONE, Method: STANDARD PLATE
[11] = Test System: AMES SALMONELLA TYPHIMURIUM, Strain/Indicator: TA98, Metabolic Activation: RAT, LIVER, S-9, AROCLOR 1254, Method: STANDARD PLATE
[12] = Test System: AMES SALMONELLA TYPHIMURIUM, Strain/Indicator: TA100, Metabolic Activation: NONE, Method: STANDARD PLATE
[13] = Test System: AMES SALMONELLA TYPHIMURIUM, Strain/Indicator: TA1538, Metabolic Activation: NONE, Method: STANDARD PLATE

## CCNc1cc(O)ccc1C
Test System: AMES SALMONELLA TYPHIMURIUM, Strain/Indicator: TA97, Metabolic Activation: HAMSTER, LIVER, S-9, AROCLOR 1254 (10%), Method: PREINCUBATION
  mutagenic call: inactive; negative
Test System: AMES SALMONELLA TYPHIMURIUM, Strain/Indicator: TA97, Metabolic Activation: NONE, Method: PREINCUBATION
  mutagenic call: inactive; negative
Test System: AMES SALMONELLA TYPHIMURIUM, Strain/Indicator: TA97, Metabolic Activation: RAT, LIVER, S-9, AROCLOR 1254 (10%), Method: PREINCUBATION
  mutagenic call: inactive; negative
[1]
  mutagenic call: active; positive
[2]
  mutagenic call: inactive; negative
[3]
  mutagenic call: active; positive
[4]
  mutagenic call: active; positive
[5]
  mutagenic call: inactive; negative
[6]
  mutagenic call: inactive; negative
[7]
  mutagenic call: inactive; negative
[8]
  mutagenic call: inactive; negative
[9]
  mutagenic call: inactive; negative

## O=Nc1ccc2c(c1)Cc1ccccc1-2
[10]
  mutagenic call: active; positive
[11]
  mutagenic call: active; positive
Test System: AMES SALMONELLA TYPHIMURIUM, Strain/Indicator: TA98, Metabolic Activation: S-9, Method: STANDARD PLATE
  mutagenic call: active; positive
[12]
  mutagenic call: active; positive
Test System: AMES SALMONELLA TYPHIMURIUM, Strain/Indicator: TA100, Metabolic Activation: S-9, Method: STANDARD PLATE
  mutagenic call: active; positive
[13]
  mutagenic call: active; positive

## Nc1ccc(N)c2c1C(=O)c1cccc([N+](=O)[O-])c1C2=O
[10]
  mutagenic call: active; positive
[11]
  mutagenic call: active; positive
[12]
  mutagenic call: inactive; negative
Test System: AMES SALMONELLA TYPHIMURIUM, Strain/Indicator: TA100, Metabolic Activation: RAT, LIVER, S-9, AROCLOR 1254, Method: STANDARD PLATE
  mutagenic call: inactive; negative
Test System: AMES SALMONELLA TYPHIMURIUM, Strain/Indicator: TA1535, Metabolic Activation: NONE, Method: STANDARD PLATE
  mutagenic call: inactive; negative
Test System: AMES SALMONELLA TYPHIMURIUM, Strain/Indicator: TA1535, Metabolic Activation: RAT, LIVER, S-9, AROCLOR 1254, Method: STANDARD PLATE
  mutagenic call: inactive; negative
Test System: AMES SALMONELLA TYPHIMURIUM, Strain/Indicator: TA1537, Metabolic Activation: NONE, Method: STANDARD PLATE
  mutagenic call: active; positive
Test System: AMES SALMONELLA TYPHIMURIUM, Strain/Indicator: TA1537, Metabolic Activation: RAT, LIVER, S-9, AROCLOR 1254, Method: STANDARD PLATE
  mutagenic call: inactive; negative
[13]
  mutagenic call: active; positive
Test System: AMES SALMONELLA TYPHIMURIUM, Strain/Indicator: TA1538, Metabolic Activation: RAT, LIVER, S-9, AROCLOR 1254, Method: STANDARD PLATE
  mutagenic call: active; positive
Test System: AMES SALMONELLA TYPHIMURIUM, Strain/Indicator: TA1978, Metabolic Activation: NONE, Method: STANDARD PLATE
  mutagenic call: inactive; negative

## COC(=O)[C@H]1CS[C@H]2C(Cl)=C(Cl)C(=O)N12
[12]
  mutagenic call: active; positive

## C[C@@H]1O[C@@H](O[C@H]2C[C@](O)(C(=O)CO)Cc3c(O)c4c(c(O)c32)C(=O)c2ccccc2C4=O)C[C@H](N)[C@@H]1O
Test System: AMES SALMONELLA TYPHIMURIUM, Strain/Indicator: GW257, Metabolic Activation: NONE, Method: STANDARD PLATE
  mutagenic call: active; positive
Test System: AMES SALMONELLA TYPHIMURIUM, Strain/Indicator: TA97, Metabolic Activation: NONE, Method: STANDARD PLATE
  mutagenic call: inactive; negative
[2]
  mutagenic call: active; positive
[10]
  mutagenic call: active; positive
[12]
  mutagenic call: active; positive
Test System: AMES SALMONELLA TYPHIMURIUM, Strain/Indicator: TA104, Metabolic Activation: NONE, Method: STANDARD PLATE
  mutagenic call: inactive; negative
[13]
  mutagenic call: active; positive
Test System: AMES SALMONELLA TYPHIMURIUM, Strain/Indicator: TA2637, Metabolic Activation: NONE, Method: STANDARD PLATE
  mutagenic call: active; positive
Test System: CHINESE HAMSTER V-79, Strain/Indicator: V-79/6-THIOGUANINE, Metabolic Activation: NONE, Method: SUSPENSION/PLATE
  mutagenic call: active; positive
Test System: CHINESE HAMSTER V-79, Strain/Indicator: V-79/6-THIOGUANINE, Metabolic Activation: RAT, LIVER, HOMOGENATE, Method: SUSPENSION/PLATE
  mutagenic call: inactive; negative
Test System: UDS RAT HEPATOCYTES, Strain/Indicator: THY INCORP, Metabolic Activation: NONE, Method: AUTOMATIC COLONY COUNTER
  mutagenic call: active; positive

## Nc1ccc(Oc2ccc(Oc3ccc(N)cc3)cc2)cc1
[2]
  mutagenic call: inactive; negative
[5]
  mutagenic call: inactive; negative
Test System: AMES SALMONELLA TYPHIMURIUM, Strain/Indicator: TA100, Metabolic Activation: RAT, LIVER, S-9, PCB, Method: PREINCUBATION
  mutagenic call: active; positive

## Nc1c(N=Nc2ccc(-c3ccc(NN=C4C=CC(=O)C=C4)cc3)cc2)c(S(=O)(=O)O)cc2c1C(=O)/C(=N/Nc1ccccc1)C(S(=O)(=O)O)=C2
[1]
  mutagenic call: inactive; negative
[2]
  mutagenic call: inactive; negative
[10]
  mutagenic call: inactive; negative
[3]
  mutagenic call: inactive; negative
Test System: AMES SALMONELLA TYPHIMURIUM, Strain/Indicator: TA98, Metabolic Activation: RAT, LIVER, S-9, PHENOBARBITAL, Method: STANDARD PLATE
  mutagenic call: inactive; negative
[4]
  mutagenic call: inactive; negative
[5]
  mutagenic call: inactive; negative
[12]
  mutagenic call: inactive; negative
[6]
  mutagenic call: inactive; negative
Test System: AMES SALMONELLA TYPHIMURIUM, Strain/Indicator: TA100, Metabolic Activation: RAT, LIVER, S-9, PHENOBARBITAL, Method: STANDARD PLATE
  mutagenic call: inactive; negative
[7]
  mutagenic call: active; positive
[8]
  mutagenic call: inactive; negative
Test System: AMES SALMONELLA TYPHIMURIUM, Strain/Indicator: TA1535, Metabolic Activation: RAT LIVER, S-9, AROCLOR 1254 (10%), Method: PREINCUBATION
  mutagenic call: inactive; negative
[9]
  mutagenic call: active; positive
Test System: AMES SALMONELLA TYPHIMURIUM, Strain/Indicator: TA1537, Metabolic Activation: HAMSTER, LIVER, S-9, AROCLOR 1254 (10%), Method: PREINCUBATION
  mutagenic call: inactive; negative
Test System: AMES SALMONELLA TYPHIMURIUM, Strain/Indicator: TA1537, Metabolic Activation: NONE, Method: PREINCUBATION
  mutagenic call: inactive; negative
Test System: AMES SALMONELLA TYPHIMURIUM, Strain/Indicator: TA1537, Metabolic Activation: RAT, LIVER, S-9, AROCLOR 1254 (10%), Method: PREINCUBATION
  mutagenic call: inactive; negative
